This note sets out measurements from patent publication US5387602A, “1.5-diphenyl-3-(N-hydroxycarbamoyloxyalkyl)pyrazoles” (Ortho Pharmaceutical Corporation, priority 1993, dated 1995).

Where two headings read alike, the source gives them in different places.

Assay [1] addresses T1, Sheep Seminal Vesicle Cyclooxygenase (Ovis aries, UniProt P05979).
T1 construct: purchased Biomol (Plymouth Meeting, Pa.); host or cells: sheep seminal vesicle
T1 sequence (P05979 25-600): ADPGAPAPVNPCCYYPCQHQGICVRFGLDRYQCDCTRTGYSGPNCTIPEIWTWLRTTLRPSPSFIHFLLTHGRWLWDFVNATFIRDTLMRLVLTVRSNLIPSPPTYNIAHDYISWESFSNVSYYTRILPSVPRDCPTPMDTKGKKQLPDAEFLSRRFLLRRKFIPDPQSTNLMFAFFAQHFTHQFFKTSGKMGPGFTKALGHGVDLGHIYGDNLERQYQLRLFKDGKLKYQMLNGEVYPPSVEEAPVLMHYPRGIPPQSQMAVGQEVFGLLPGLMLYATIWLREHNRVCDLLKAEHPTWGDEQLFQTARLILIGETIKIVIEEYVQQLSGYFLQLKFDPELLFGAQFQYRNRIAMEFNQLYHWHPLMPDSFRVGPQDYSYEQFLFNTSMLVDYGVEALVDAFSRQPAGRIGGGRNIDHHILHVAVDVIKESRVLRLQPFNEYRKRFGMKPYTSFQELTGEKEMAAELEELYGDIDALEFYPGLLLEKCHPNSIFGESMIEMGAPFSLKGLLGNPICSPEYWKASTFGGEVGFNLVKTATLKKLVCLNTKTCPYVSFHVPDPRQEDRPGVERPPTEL
Description: Procedure I: sheep seminal vesicle (SSV) cyclooxygenase inhibition. Conditions: for IC50: SSV CO; for % INHIB. CO (Procedure I): dose 3 MPK unless otherwise stated (so in the source). Type of assay: biochemical. The protocol: Sheep Seminal Vesicle Cyclooxygenase Sheep seminal vesicle (SSV) cyclooxygenase (95% pure, prostaglandin endoperoxide synthase, EC 1.14.99.1 specific activity 24 units/mg protein) obtained as a lyophilized powder from Biomol (Plymouth Meeting, Pa.) was reconstituted at a concentration of 59 mg/mL in Hanks' Balanced Salt Solution (HBSS). The enzyme was divided into 200 μL aliquots, snap frozen with liquid N2, and stored at -70° C. until immediately prior to use. Measurements of CO activity were carried out in polypropylene tubes containing 495 μL of HBSS to which was added 5 μL Of inhibitor or dimethylsulfoxide (DMSO; vehicle control) and 6 μL of SSV CO solution. The tubes were mixed on a vortex shaker, preincubated for 5 min at 37° C. prior to the initiation of the reaction. The reaction was started by the addition of [^14 C]-arachidonic acid (1-^14 C-AA, Amersham, Arlington Heights, Ill.) in 10 μL of methanol. Tubes were again vortexed and incubated in a water bath for 20 minutes after which the tubes were removed and the reaction stopped by acidification with the addition of 1 mL 2M formic acid. Lipophilic products were extracted with 3 mL chloroform and concentrated to dryness under N2. Each pellet was reconstituted with 40 μL of chloroform and spotted on a Whatman Silicon thin-layer chromatography plate and developed in a chromatography tank containing A-9 solvent (11:5:2:1 V:V:V:V, ethyl acetate:trimethyl-pentane:acetic acid:double distilled-H2 O). Radioactive cyclooxygenase products (prostaglandin D2, prostaglandin E2, etc.) were measured using a Bioscan System 200 Imaging Scanner. Inhibition of enzyme activity was calculated by comparing the areas under the curve produced in the presence or absence of test compound. In the following tables, the superscripts indicate the number of experiments and, unless otherwise stated, the dose at which % inhibition is reported is 3 MPK.

Assay [2] concerns CO (prostaglandin F2a or TxB2) in dog whole blood. Kind of assay: Procedure IV: ex vivo eicosanoid synthesis in dog whole blood after oral dosing, CO. Conditions: Canis lupus familiaris, 5 MPK, read-out: % INHIB/HOURS CO (Proc. IV). The protocol:
(§1) Ex Vivo eicosanoid synthesis in dog whole blood. Adult beagle or mongrel dogs (10-15 kg) of either sex were fasted overnight prior to the initiation of each experiment. The forelimb was clipped and swabbed with an alcohol prep (70% isopropanol). Blood was drawn by venipuncture into syringes containing lithium heparin (Starstead, Newton N.C.) immediately prior to administration of compound or vehicle and then at various intervals following dosing. The test compound was administered orally as a suspension in 0.5% methocel. At various times after dosing, blood samples were drawn and placed on an electric rocker platform to assure complete and continuous mixing. White blood cell (wbc) counts were performed using a Sysmex hematology analyzer. This was done in an effort to normalize the number of leukocytes to be stimulated with calcium ionophore. A 1.0 mL aliquot of whole blood was challenged with 50 μL of a 2.6×10^-5 M solution of calcium ionophore A23187 (Calbiochem, La Jolla, Calif.) prepared in DMSO and diluted in HBSS. After a 15 minute incubation at 37° C., the reaction was stopped by placing the samples in an ice bath (4° C.) for 5 minutes and then centrifuged at 11,000×g for 5 minutes to separate the plasma fraction from blood cells. The plasma fraction was removed, diluted in an appropriate buffer, and analyzed for the presence of LTB4 and prostaglandin F2a or TxB2 by standard RIA techniques.
(§2) In the following tables, the superscripts indicate the number of experiments and, unless otherwise stated, the dose at which % inhibition is reported is 3 MPK.

For assay [3], the system named is 5-LO (LTB4) in dog whole blood. Kind of assay: Procedure IV: ex vivo eicosanoid synthesis in dog whole blood after oral dosing, 5-LO. Conditions: Canis lupus familiaris, 5 MPK, read-out: % INHIB/HOURS 5-LO (Proc. IV). The protocol:
as §1, §2

By IC50 is commonly meant the concentration that inhibits the measured activity by half. A high value points to weaker potency in that assay. On to `COc1ccc(-n2nc(CCOC(=O)N(O)C(C)C)c(Br)c2-c2ccc(Cl)cc2)cc1` [2-F], for which, in assay [1], 0.48 µM corresponded to half-maximal inhibition (IC50) and the “% INHIB. CO (Procedure I)” value is on record as 58%. In assay [2] (24 hours), the inhibition at 5 mg/kg was found to be 42%. Also, the inhibition at 5 mg/kg in assay [3] (24 hours) came to 11%.

Turning to `COc1ccc(-n2nc(CCOC(=O)N(C)O)c(Cl)c2-c2ccc(C)cc2)cc1` [2-I], in assay [1], the 50% inhibitory concentration (IC50) was 3.5 µM and the “% INHIB. CO (Procedure I)” value turned out to be 80%. The inhibition at 5 mg/kg in assay [2] (6 hours) came out at 0%. For the same compound, the inhibition at 5 mg/kg in assay [3] (6 hours) came out at 0%.

Turning to `COc1ccc(-n2nc(CCOC(=O)N(O)C(C)C)c(Cl)c2-c2ccc(C)cc2)cc1` [2-J], in assay [1], the IC50 was determined as 4.5 µM and the “% INHIB. CO (Procedure I)” value stood at 88%. Further, the inhibition at 5 mg/kg in assay [2] (4 hours) stood at 73%. Besides, in assay [3] (4 hours), the inhibition at 5 mg/kg turned out to be 26%.

With `COc1ccc(-n2nc(CCCOC(=O)N(C)O)cc2-c2ccc(Cl)cc2)cc1` [3-B], in assay [1], the “% INHIB. CO (Procedure I)” value was 74%. Further, the inhibition at 5 mg/kg in assay [2] (6 hours) amounted to 94%; in assay [3] (6 hours) it was 11%.

Regarding `COc1ccc(-n2nc(CCCOC(=O)N(C)O)c(Cl)c2-c2ccc(Cl)cc2)cc1` [3-D], the half-maximal inhibitory concentration (IC50) in assay [1] is 2.55 µM. Besides, the “% INHIB. CO (Procedure I)” value in assay [1] was 68%. Further, the inhibition at 5 mg/kg in assay [2] (2 hours) was found to be 93%; in assay [3] (2 hours), 1%.

`COc1ccc(-n2nc(CCCOC(=O)N(O)C(C)C)c(Cl)c2-c2ccc(Cl)cc2)cc1` [3-E]: in assay [1], the midpoint of inhibition, the IC50, lay at 5.8 µM and the “% INHIB. CO (Procedure I)” value was 26%. Moreover, the inhibition at 5 mg/kg in assay [2] (2 hours) was determined as 76%. Also, the inhibition at 5 mg/kg in assay [3] (24 hours) is 22%.

As for `COc1ccc(-n2nc(CCCOC(=O)N(C)O)c(Br)c2-c2ccc(Cl)cc2)cc1` [3-F], in assay [1], the IC50 was 2.29 µM and the “% INHIB. CO (Procedure I)” value is given as 78%. In addition, in assay [2] (2 hours), the inhibition at 5 mg/kg came out at 45%. Moreover, the inhibition at 5 mg/kg in assay [3] (2 hours) stood at 8%.
